From ChEMBL document CHEMBL3046017, “Design, synthesis, and docking studies of telmisartan analogs for the treatment of metabolic syndrome” (Med Chem Res, 2009)
Active and inactive are the calls of the source. No cut-off for these calls is given here.

Key:
3T3-L1 = assay: Induction of adipocyte differentiation in Mus musculus (mouse) 3T3L1 cells at 1 to 5 uM; assay type: functional, cell-based
[1] = biological target: T1, Type-1 angiotensin II receptor A (Rattus norvegicus, UniProt P25095); assay: Displacement of [125I]-SI-Ang-2 from AT1 receptor in Rattus norvegicus Sprague-Dawley (rat) liver membranes after 2 hr; set-up: species or system Membrane
T1 sequence (P25095 whole entry): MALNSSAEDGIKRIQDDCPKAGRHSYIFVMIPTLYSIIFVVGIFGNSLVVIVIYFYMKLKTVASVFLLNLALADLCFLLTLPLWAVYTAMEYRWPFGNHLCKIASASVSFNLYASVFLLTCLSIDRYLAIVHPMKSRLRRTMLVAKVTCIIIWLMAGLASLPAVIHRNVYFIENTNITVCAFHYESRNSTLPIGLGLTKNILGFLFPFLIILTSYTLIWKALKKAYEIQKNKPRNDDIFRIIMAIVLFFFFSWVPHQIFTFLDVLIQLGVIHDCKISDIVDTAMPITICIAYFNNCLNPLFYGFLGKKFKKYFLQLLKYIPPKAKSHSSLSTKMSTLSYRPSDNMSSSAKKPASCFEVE

[2] = biological target: T2, Peroxisome proliferator-activated receptor gamma (Homo sapiens) (UniProt P37231); assay: Agonist activity at Homo sapiens (human) PPARgamma LBD expressed in African green monkey CV-1 cells co-expressing GAL4 assessed as beta-galactosidase activity at 10 uM after 24 hr by luciferase reporter gene assay relative to rosiglitazone; assay type: cell-based
T2 sequence (whole entry): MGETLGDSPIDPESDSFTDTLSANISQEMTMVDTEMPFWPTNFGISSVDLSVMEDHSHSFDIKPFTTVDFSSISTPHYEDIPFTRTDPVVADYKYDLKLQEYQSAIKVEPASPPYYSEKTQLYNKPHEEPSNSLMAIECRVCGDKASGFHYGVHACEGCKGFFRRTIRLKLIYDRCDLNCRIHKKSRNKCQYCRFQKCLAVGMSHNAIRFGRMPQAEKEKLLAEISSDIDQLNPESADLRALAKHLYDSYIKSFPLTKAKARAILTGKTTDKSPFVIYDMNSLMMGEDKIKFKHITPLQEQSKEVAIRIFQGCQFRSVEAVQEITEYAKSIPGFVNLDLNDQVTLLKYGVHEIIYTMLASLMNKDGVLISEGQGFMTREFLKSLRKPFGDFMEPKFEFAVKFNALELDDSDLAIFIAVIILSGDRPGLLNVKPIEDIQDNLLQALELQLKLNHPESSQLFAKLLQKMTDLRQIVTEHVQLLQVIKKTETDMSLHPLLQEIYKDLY

Structure (SMILES) | Ki [1] [µM] | %max [2] | Activity (3T3-L1)
COC(=O)c1ccccc1-c1ccc(Cn2cnc3ccc(-c4nc5ccccc5n4C)cc32)cc1 | > 10 | 6.3% | inactive
Cn1c(-c2ccc3ncn(Cc4ccc(-c5ccccc5)cc4)c3c2)nc2ccccc21 | > 10 | 5.7% | inactive
COC(=O)c1ccccc1-c1ccc(Cn2c(C)nc3ccc(-c4nc5ccccc5n4C)cc32)cc1 | > 10 | 6.8% | inactive
COC(=O)c1ccccc1-c1ccc(Cn2cnc3ccccc32)cc1 | > 10 | 1.8% | inactive
COC(=O)c1ccc(-c2ccc(Cn3c(C)nc4ccc(-c5nc6ccccc6n5C)cc43)cc2)c(C(=O)OC)c1 | > 10 | 2.8% | inactive
COC(=O)c1ccc(-c2ccc(Cn3cnc4ccc(-c5nc6ccccc6n5C)cc43)cc2)c(C(=O)OC)c1 | > 10 | 5.7% | inactive
COC(=O)c1ccccc1-c1ccc(Cn2cnc3c(C)cccc32)cc1 | > 10 | 4.7% | inactive

Further lines, with some results ahead:

Ki [1] [µM] | %max [2] | Structure (SMILES) | Activity (3T3-L1)
> 10 | 7.3% | COC(=O)c1ccc(-c2ccc(Cn3c(C)nc4ccc(-c5nc6ccccc6n5C)cc43)cc2)cc1 | inactive
0.188 | inactive | CCCc1nc2c(C)cc(-c3nc4ccccc4n3C)cc2n1Cc1ccc(-c2ccc(C(=O)O)cc2C(=O)O)cc1 | inactive
> 10 | 3.6% | COC(=O)c1ccc(-c2ccc(Cn3cnc4ccc(-c5nc6ccccc6n5C)cc43)cc2)cc1 | inactive
0.00023 | 21.2% | CCCc1nc2c(C)cc(-c3nc4ccccc4n3C)cc2n1Cc1ccc(-c2ccccc2C(=O)O)cc1 [TELMISARTAN] | Active
0.65 | 8% | CCCc1nc2c(C)cc(-c3nc4ccccc4n3C)cc2n1Cc1ccc(-c2ccc(C(=O)OC)cc2C(=O)OC)cc1 | inactive
